System: Japanese women
Assay: Contingent negative variation (CNV) amplitude measurement, method of Torii
Type: in vivo, human
Details: used in perfume compositions in an amount of less than 0.5% by weight, preferably 0.01% to 0.4% by weight
From the text: (CNV) according to the method of Torii [Proceedings of the 19th Japanese Symposium on Taste and Smell, 65 (1985)], which is also described in detail in U.S. Pat. No. 6,268,333.
The contingent negative variations are small variations in cerebral potential related to psychological processes, such as attention, waiting, anticipation etc. as well as being related to changes in the state of consciousness.
According to this method, a luminous signal is emitted approximately 2 seconds after the audible signal, and the subject must switch off the luminous signal by pressing on the button as soon as the luminous signal is recognised.
When carrying out these experiments, a sample to be tested (perfume composition) or a reference sample (with no smell) is placed around 10 centimeters from the nose of the subject taking part in these experiments in such a way as to ensure that the compound is recognised at all times via the said subject's respiration. […]
The contingent negative variations measured during an early period of time going from 400 msec to 1000 msec after the audible signal and the amplitude of these variations is expressed with respect to a reference sample to which a value of 100% is given. […]
The amplitude of the contingent negative variations was determined for each woman taking part in the test during the early period going from 400 msec to 1000 msec after the audible signal.

COc1cc(OC)cc(OC)c1 [1,3,5-trimethoxybenzene]
sedative effect by measurement of contingent negative variations: sedative effect

Reference: patent US7968606B2 (Takasago International Corporation, priority 2004, dated 2011)
